Results on 78 compounds are retold here after the METLIN SMRT retention time set (Domingo-Almenara et al. 2019).

The structures appear in SMILES notation.

The nature of the data set: gradient 5% acetonitrile 3 min, to 50% in 2 min, to 85% in 15 min, held 3 min, 100 µL/min. The settings on record: column: Zorbax Extend-C18 2.1 x 50 mm; eluents: water / acetonitrile, 0.1% formic acid. In a few lines: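 Mixtures of ~100 pure standards were chromatographed on a Zorbax Extend-C18 column (2.1 × 50 mm, 1.8 μm) at 100 μL/min using water and acetonitrile, each with 0.1% formic acid. Detection used a quadrupole time-of-flight mass spectrometer in positive and negative ionization mode, and data collection spanned 3 months. Retention time was obtained from adduct peaks picked computationally and each checked manually.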
`O=C(c1c(F)cccc1F)N1CCN(S(=O)(=O)c2cc3c4c(c2)CCC(=O)N4CCC3)CC1` showed an RP-LC retention time of 799 s.
`COc1ccc(OCc2nc(-c3ccc4nnn(C)c4c3)no2)cc1` yielded an RP-LC retention time of 916 s.
Turning to `O=C(Cc1ccc(Br)cc1)NC1CCN(c2cc(-c3cccs3)[nH]n2)C1` (stereo not drawn), the RP-LC retention time amounted to 767 s.
The same measure for `Cc1nc(OCC(=O)Nc2ccc(F)cc2F)c2ccccc2n1`: 742 s; for `Cc1cc(Br)ccc1NC(=O)CCn1c(=O)oc2ccccc21`: 823 s; for `CCn1ccc2sc(C)c(C(=O)NC3CCCC3)c2c1=O`: 733 s.
`CCCOc1cc(N2CCN(S(=O)(=O)CCC)CC2)nc(C)n1` gave an RP-LC retention time of 606 s.
The result for `COCc1nncn1C1CCN(C(=O)C2(c3ccccc3)CC2)CC1` reads 650 s; that for `COc1ccc(/C=C/c2nn3c(-c4cccnc4)nnc3s2)cc1`, 860 s; that for `CC(=O)c1c(C)n(CC(=O)NCc2cc3c(cc2C)OCCCO3)c2ccccc12`, 826 s.
With `COc1ccc(NC(=O)Cn2nc3c(Oc4cc(C)cc(C)c4)nccn3c2=O)cc1`, the RP-LC retention time amounted to 859 s.
`COc1cc(Nc2nc(-c3nnn(-c4ccc(Cl)cc4)c3C)ns2)cc(OC)c1` registered an RP-LC retention time of 1100 s.
The result for `Cc1ccc(CNC(=O)C2CCN(c3nc(C4CCC4)nc4csc(C)c34)CC2)cc1C` reads 808 s.
`Cc1ccc(NC(=O)CN2C(=O)CCc3cc(Br)ccc32)cc1` yielded an RP-LC retention time of 931 s.
`COc1ccc(-c2noc(C3(NC(=O)c4cc(C)cc(C)c4)CCCCC3)n2)cc1` yielded an RP-LC retention time of 1250 s.
As for `Cc1ccc(NC(=O)Cn2nc3c(N4CCN(c5ccccc5C)CC4)nccn3c2=O)cc1F`, the RP-LC retention time is 1110 s.
The result for `COc1ccc(-c2c(C)noc2NC(C)=O)cc1S(=O)(=O)Nc1ccccc1Cl` reads 783 s; that for `COc1ccc(NC(=O)C2CCN(C(=O)C3Sc4ccccc4NC3=O)CC2)cc1OC` (stereo not drawn), 692 s.
For `CCOC(=O)c1cnc2nc(-c3ccccc3Cl)nn2c1C`, the RP-LC retention time came out at 945 s.
As to `O=C(NCc1ccco1)c1c(O)c2cccnc2n(Cc2ccccc2)c1=O`, the RP-LC retention time is 1250 s.
For `Cc1ccc(N2CC(c3noc(-c4ccc5c(c4)OCO5)n3)CC2=O)cc1` (stereo not drawn), the RP-LC retention time stood at 957 s.
For `Cc1cc(N2CCN(C)CC2)nc2ccc(NC(=O)c3cccc([N+](=O)[O-])c3)cc12`, the RP-LC retention time turned out to be 576 s.
In the case of `Cc1coc(C)c1C(=O)Nc1ncc(Cc2ccc(Cl)cc2)s1`, the RP-LC retention time came to 1020 s.
For the compound `COc1ccccc1-c1nc(Cn2c(=O)c3c(C)cc(C)nc3n(C)c2=O)c(C)o1`, the RP-LC retention time was determined as 1070 s.
In turn, `COc1ccc(-c2nnc(-c3cccc(S(=O)(=O)N4CCOCC4)c3)o2)cc1OC` showed an RP-LC retention time of 813 s.
Compound `O=C(NCc1ccccc1)C1CN(S(=O)(=O)c2cccnc2)CC12CCCCC2` (stereo not drawn) showed an RP-LC retention time of 864 s.
The compound `Cc1ccc(CNC(=O)C2CCN(S(=O)(=O)c3cc(-c4noc(C5CC5)n4)sc3C)CC2)o1` came in with an RP-LC retention time of 1010 s.
In turn, `Cc1ccsc1C(=O)Nc1ccc(N2CCN(C3CCCCC3)C2=O)nc1` gave an RP-LC retention time of 863 s.
Take `CCC(=O)Nc1cc(C)n(Cc2ccccc2)n1`: the RP-LC retention time is 733 s.
`Cc1ccc(CN2CCN(CC(C)C(=O)NCc3ccc(F)cc3F)C(=O)C2=O)cc1` (stereo not drawn) showed an RP-LC retention time of 755 s.
`CN(CC1(C)CCOCC1)C(=O)CCc1c[nH]c2ccccc12`: the RP-LC retention time was determined as 772 s.
The same measure for `CCCCC(=O)N1CCN(c2cc(C)nc(Nc3ccc(C)cc3)n2)CC1`: 693 s; for `COc1cccc(N2CCN(S(=O)(=O)c3ccsc3C(=O)NCC(C)C)CC2)c1`: 1000 s.
The same measure for `CC1(C)COCN1S(=O)(=O)c1ccc(C(=O)Nc2nnc(-c3ccc(F)cc3)o2)cc1`: 811 s; for `Cc1oc2c(C)c3oc(=O)c(CCC(=O)N4CCN(c5ccccn5)CC4)c(C)c3cc2c1C`: 728 s; for `CC(C)N1CCN(c2ncc(C(=O)NCc3ccccc3)c(N)n2)CC1`: 595 s.
The same measure for `Cc1ccc(Cl)cc1N1CCN(c2ccc3cc(S(=O)(=O)N4CCOCC4)ccc3n2)CC1`: 1200 s; for `CCCCN1CCN(C(=O)C2CCCN(c3cnc4nccnc4c3)C2)CC1` (stereo not drawn): 569 s.
As to `OC(COCc1ccc(Cl)cc1)CN1CCCCC1` (stereo not drawn), the RP-LC retention time stood at 580 s.
Compound `CC(C)CNC(=O)C1Cn2cccc2C(=O)N1CC(C)C` (stereo not drawn) returned an RP-LC retention time of 750 s.
Regarding `O=C1NC2(CCN(C(=O)Cc3ccccc3)CC2)Nc2c(Cl)cccc21`, the RP-LC retention time turned out to be 756 s.
For the compound `Cc1cc(N2CCN(S(=O)(=O)c3cccc(Cl)c3)CC2)nc(NC2CCCCC2)n1`, the RP-LC retention time is 844 s.
`Cc1cc(-c2nnc(C3CC3)o2)c(C)n1CC(=O)NCc1ccc(F)cc1F` gave an RP-LC retention time of 811 s.
In turn, `Cc1sc(NC(=O)Cc2csc(-c3ccccc3)n2)nc1-c1ccc(Br)cc1` returned an RP-LC retention time of 1270 s.
With `CCn1ncn2cc(S(=O)(=O)Nc3cccc(C)c3)cc2c1=O`, the RP-LC retention time was 849 s.
`c1ccc(CNc2nc(NCc3ccccc3)c3ccccc3n2)cc1` returned an RP-LC retention time of 796 s.
Compound `Cc1ccc(-c2csc(NC(=O)CSc3nc4c(cc3C#N)C(=O)CCC4)n2)cc1` gave an RP-LC retention time of 583 s.
With `COCCNC(=O)Cn1c(=O)n(-c2ccccc2)c2ncccc21`, the RP-LC retention time turned out to be 634 s.
In turn, `O=C(NCCCN1CCN(c2ccccc2)CC1)c1ccc(F)cc1F` had an RP-LC retention time of 590 s.
Consider `Cc1ccc(-c2n[nH]c(CCNC(=O)c3ccc(S(=O)(=O)N4CCOCC4)cc3)n2)cc1`, for which the RP-LC retention time was determined as 704 s.
The same measure for `Cc1ccccc1-c1nc2cnccn2c1NCCC(=O)NCc1cc(F)cc(F)c1`: 693 s; for `CCc1ccccc1S(=O)(=O)Nc1ccc2c(c1)nc(-c1ccc(C(=O)N(CC)CC)cc1)n2C`: 739 s.
`COc1ccc(C2Cn3cnc(C(=O)N4CCC(C(=O)NCc5cccs5)CC4)c3CO2)cc1` (stereo not drawn) yielded an RP-LC retention time of 715 s.
As to `COc1ccc(N2CC(c3noc(-c4ccc(OC)c(OC)c4)n3)CC2=O)cc1` (stereo not drawn), the RP-LC retention time turned out to be 839 s.
The result for `CCn1cc(CCNC(=O)Nc2ccccc2Br)c2cccnc21` reads 774 s; that for `Cc1ccc(F)c(NS(=O)(=O)c2cc(-c3[nH]ncc3C(=O)N3CCOCC3)oc2C)c1`, 678 s; that for `Cn1ncc2c3ccccc3n(CC(=O)N3CCN(Cc4ccccc4)CC3)c2c1=O`, 639 s.
The same measure for `CC(C)c1ccc(NC(=O)Cn2cnc3c(sc4nc(-c5ccccc5)ccc43)c2=O)cc1`: 1180 s; for `Cc1ccc(NC(=O)CN2C(=O)NC3(CCCCC3)C2=O)c(C)c1`: 774 s.
Consider `CSc1ccc(CNC(=O)C2CCN(c3cncnc3N3CCCCC3)CC2)cc1`, for which the RP-LC retention time was determined as 734 s.
Compound `Cc1ccc(C(=O)NCCc2nc3cccnc3n2C)c(C)c1` yielded an RP-LC retention time of 623 s.
Turning to `Cc1ccc(CCNC(=O)Cc2csc3nc(-c4ccc(C)c(C)c4)cn23)cc1`, the RP-LC retention time came out at 884 s.
In the case of `C=C1CC2(OC1=O)c1ccccc1CCc1ccccc12`, the RP-LC retention time stood at 1140 s.
The result for `COc1ccc(CCNC(=O)c2nc(CCS(=O)(=O)c3ccccc3)no2)cc1OC` reads 754 s; that for `COc1ccc(N2CCN(c3nc4ccc(C)cc4cc3-c3noc(C)n3)CC2)cc1`, 700 s; that for `O=C(CN1C(=O)C(C(=O)N2CCCC2)Sc2ccccc21)NCc1ccc(Cl)cc1` (stereo not drawn), 948 s.
As to `COc1cccc(NC(=O)C2CCN(c3c(C)n(C)c(=O)n(C)c3=O)CC2)c1`, the RP-LC retention time came out at 769 s.
Consider `Cc1c(Cl)cccc1NC(=O)C(=O)NCC(O)c1ccc(C(F)(F)F)cc1` (stereo not drawn), for which the RP-LC retention time is 936 s.
Consider `Cc1ccc2c(Nc3ccc(CC(=O)O)cc3)c(C(=O)N3CCCCCC3)cnc2n1`, for which the RP-LC retention time was determined as 595 s.
As for `O=C(NCc1ccc(F)cc1)c1nnc(-c2ccc(S(=O)(=O)N3CCOCC3)cc2)o1`, the RP-LC retention time came out at 910 s.
`O=C(CN1N=C(C(=O)Nc2ccc(F)cc2)CCC1=O)Nc1ccc(F)c(F)c1` gave an RP-LC retention time of 838 s.
As for `O=C1Nc2ccccc2SC1C(=O)N1CCC(C(=O)N2CCN(c3ccc(F)cc3)CC2)CC1` (stereo not drawn), the RP-LC retention time amounted to 778 s.
The result for `Cc1cc(C)n(-c2ccnc(N3CCC(C(=O)NCCN4CCCC4)CC3)n2)n1` reads 587 s; that for `Cn1cc(CCNS(=O)(=O)c2ccc(F)cc2Cl)c2cccnc21`, 755 s.
The result for `Cc1ccccc1OCC(=O)N1CCCC(COCc2ccccc2)C1` (stereo not drawn) reads 1030 s.
The same measure for `COc1ccccc1NC(=O)Cn1nc2c(Oc3ccc(Cl)cc3)nccn2c1=O`: 859 s.
Take `O=C(CCC(=O)N1CC2CCCN2c2ccccc21)N1CCN(Cc2ccc3c(c2)OCO3)CC1` (stereo not drawn): the RP-LC retention time came out at 692 s.
For `CNC(=O)C1CCCN(c2nc3ncn(CC(=O)Nc4cc(OC)ccc4OC)c(=O)c3s2)C1` (stereo not drawn), the RP-LC retention time is 705 s.
